Experimental data as given in patent US9868746B2, “Substituted 5-aminothieno[2,3-C]pyridazine-6-carboxamide analogs as positive allosteric modulators of the muscarinic acetylcholine receptor M4” (Vanderbilt University, priority 2012, dated 2018).

Biological target: T1, mAChR M4 (Homo sapiens, UniProt P08173)
T1 construct: expressed in transfected cells; host or cells: CHO-K1 cells stably transfected with M4 cDNA and chimeric G-protein Gqi5
T1 sequence (P08173 1-479): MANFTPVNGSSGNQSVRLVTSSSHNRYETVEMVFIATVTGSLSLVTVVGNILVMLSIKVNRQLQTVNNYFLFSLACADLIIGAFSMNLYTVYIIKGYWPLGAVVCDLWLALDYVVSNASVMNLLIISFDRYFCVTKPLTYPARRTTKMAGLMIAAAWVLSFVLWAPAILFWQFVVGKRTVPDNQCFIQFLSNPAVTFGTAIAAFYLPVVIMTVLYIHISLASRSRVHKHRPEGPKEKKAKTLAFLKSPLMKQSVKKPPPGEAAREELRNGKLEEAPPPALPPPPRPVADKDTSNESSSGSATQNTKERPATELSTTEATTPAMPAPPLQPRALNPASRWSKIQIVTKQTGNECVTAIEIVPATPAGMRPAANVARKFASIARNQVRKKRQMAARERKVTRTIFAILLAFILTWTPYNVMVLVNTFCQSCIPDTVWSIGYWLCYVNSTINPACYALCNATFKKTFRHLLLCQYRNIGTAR
Experiment: mAChR M4 cell-based functional assay (calcium mobilization, potentiation of EC20 acetylcholine response)
Conditions: for Emax at 30 µM: % ACh maximum at 30 μM; for EC50: mAChR M4 cell-based functional assay, >10,000 estimated for low potency compounds without plateau, read-out: EC50

SMILES | Emax at 30 µM | EC50
Cc1nnc2sc(C(=O)N3CC(NC(=O)C4CC4c4ccccc4)C3)c(N)c2c1C (stereo not drawn) [Example B182] | 59% | 2300 nM
Cc1nnc2sc(C(=O)NCc3ccc(C#N)cc3)c(N)c2c1C [Example B431] | 56% | 120 nM
Cc1nnc2sc(C(=O)NC3CN(C(=O)c4ccccc4)C3)c(N)c2c1C [Example B160] | 71% | 78 nM
Cc1nnc2sc(C(=O)N3CCC(NS(=O)(=O)c4ccccc4)C3)c(N)c2c1C (stereo not drawn) [Example B207] | 64% | 1300 nM
CS(=O)(=O)c1ccc(CNC(=O)c2sc3nnccc3c2N)cc1 [Example B20] | 41% | > 10000 nM
Cc1nnc2sc(C(=O)N3CC(NCc4ccccc4)C3)c(N)c2c1C [Example B65] | 56% | 3600 nM
Cc1nnc2sc(C(=O)N3CC4CN(c5ccc(C#N)nc5)CC4C3)c(N)c2c1C (stereo not drawn) [Example B436] | 49% | 980 nM
Cc1nnc2sc(C(=O)NCc3ccc(S(C)(=O)=O)cn3)c(N)c2c1C [Example B329] | 74% | 780 nM
Cc1nnc2sc(C(=O)NCc3ccc(C(F)F)nc3)c(N)c2c1C [Example B420] | 71% | 270 nM
Cc1nnc2sc(C(=O)N3CC4CN(c5ncccn5)CC4C3)c(N)c2c1C (stereo not drawn) [Example B434] | 48% | 1100 nM
Cc1nnc2sc(C(=O)NCCN(C)C(=O)C3CC3)c(N)c2c1C [Example B343] | 33% | > 10000 nM
COc1ccc(CNC(=O)c2sc3nnc(C)c(C)c3c2N)nc1 [Example B508] | 54% | 770 nM
COc1ncc(CNC(=O)c2sc3nnc(C)c(C)c3c2N)cn1 [Example B399] | 62% | 290 nM
CCCCCC(=O)NC1CN(C(=O)c2sc3nnc(C)c(C)c3c2N)C1 [Example B175] | 52% | > 10000 nM
Cc1nnc2sc(C(=O)N3CC4CN(C(=O)OC(C)(C)C)CC4C3)c(N)c2c1C (stereo not drawn) [Example B259] | 53% | 900 nM
Cc1nnc2sc(C(=O)NCc3ccc(-c4ccc(F)nc4F)cc3)c(N)c2c1C [Example B495] | 72% | 210 nM
Cc1nnc2sc(C(=O)NCCNS(C)(=O)=O)c(N)c2c1C [Example B352] | 51% | > 10000 nM
Cc1nnc2sc(C(=O)NC3CCN(C(=O)CC4CCCCC4)C3)c(N)c2c1C (stereo not drawn) [Example B241] | 64% | 860 nM
Nc1c(C(=O)NCc2ccccc2)sc2nnccc12 [Example B19] | 53% | > 10000 nM
Cc1nnc2sc(C(=O)NCc3ccc(S(=O)(=O)C(F)F)c(Cl)c3)c(N)c2c1C [Example B489] | 73% | 35 nM
Cc1nnc2sc(C(=O)NC3CCN(C(=O)c4ccc(F)c(F)c4)C3)c(N)c2c1C (stereo not drawn) [Example B255] | 71% | 430 nM
Cc1nnc2sc(C(=O)N3CC(c4ccccc4)C3)c(N)c2c1C [Example B116] | 75% | 160 nM
Cc1nnc2sc(C(=O)NCc3ccc4c(cnn4C)c3)c(N)c2c1C [Example B251] | 79% | 190 nM
Nc1c(C(=O)NCc2ccc3c(c2)OC(F)(F)O3)sc2nnc3c(c12)CCCC3 [Example B53] | 42% | 170 nM
Cc1nnc2sc(C(=O)N3CC(NC(=O)C4CCCCC4)C3)c(N)c2c1C [Example B185] | 54% | 1800 nM
Cc1nnc2sc(C(=O)NCc3ccc(OC(F)F)cn3)c(N)c2c1C [Example B480] | 74% | > 10000 nM

SMILES | Emax at 30 µM | EC50
Cc1nnc2sc(C(=O)NCCN(C)C(=O)c3ccc(F)cc3)c(N)c2c1C [Example B357] | 27% | > 10000 nM
Cc1nnc2sc(C(=O)NCc3ccc(-c4cc(F)nc(F)c4)cc3)c(N)c2c1C [Example B455] | 64% | 27 nM
Cc1nnc2sc(C(=O)NC3CN(c4nc5ccccc5s4)C3)c(N)c2c1C [Example B422] | 73% | 17 nM
CCCCC1(OC)CN(C(=O)c2sc3nnc(C)c(C)c3c2N)C1 [Example B305] | 68% | 870 nM
Cc1nnc2sc(C(=O)N3CCCC(c4ccccc4)C3)c(N)c2c1C (stereo not drawn) [Example B107] | 52% | 1700 nM
Cc1nnc2sc(C(=O)NCc3ccc4c(c3)OCCO4)c(N)c2c1C [Example B29] | 76% | 30 nM
Cc1nnc2sc(C(=O)NCc3ccc(OC(F)F)cc3)c(N)c2c1C [Example B168] | 76% | 13 nM
COc1ccc(CNC(=O)c2sc3nnc(C)c(C)c3c2N)cc1Br [Example B482] | 67% | 87 nM
Cc1nnc2sc(C(=O)N3CC(S(=O)(=O)c4ccccc4)C3)c(N)c2c1C [Example B413] | 54% | 350 nM
Cc1nnc2sc(C(=O)NCC3CC3)c(N)c2c1C [Example B6] | 89% | 500 nM
Cc1nnc2sc(C(=O)NCc3ccc(S(C)(=O)=O)c(F)c3)c(N)c2c1C [Example B33] | 73% | 37 nM
Cc1nnc2sc(C(=O)N3CCC(c4ccccc4)CC3)c(N)c2c1C [Example B115] | 38% | 3900 nM
Cc1nnc2sc(C(=O)NCc3cnn(C)c3)c(N)c2c1C [Example B89] | 58% | 320 nM
Cc1nnc2sc(C(=O)N3CC(c4ccccc4)(N(C)C)C3)c(N)c2c1C [Example B322] | 42% | 2200 nM
CCCOC(=O)N1CCC(NC(=O)c2sc3nnc(C)c(C)c3c2N)C1 (stereo not drawn) [Example B224] | 77% | 610 nM
Cc1nnc2sc(C(=O)N3CCC(NC(=O)c4ccccc4)C3)c(N)c2c1C (stereo not drawn) [Example B246] | 78% | 4600 nM
Cc1nnc2sc(C(=O)NCc3cccc(-c4ccccc4)c3)c(N)c2c1C [Example B469] | 64% | 430 nM
Cc1nnc2sc(C(=O)N3CC(S(=O)(=O)c4ccc(F)cc4F)C3)c(N)c2c1C [Example B432] | 40% | 820 nM
COC1(c2cccc(F)c2)CN(C(=O)c2sc3nnc(C)c(C)c3c2N)C1 [Example B299] | 35% | 350 nM
Cc1nnc2sc(C(=O)NCCNC(=O)c3ccc(F)cc3)c(N)c2c1C [Example B340] | 38% | 370 nM
Cc1cncc(NC(=O)c2sc3nnc(C)c(C)c3c2N)c1 [Example B71] | 31% | 460 nM
Cc1nnc2sc(C(=O)N3CC4(CN(C(=O)c5ccccc5)C4)C3)c(N)c2c1C [Example B404] | 50% | > 10000 nM
Cc1nnc2sc(C(=O)N3CCC(NS(C)(=O)=O)C3)c(N)c2c1C (stereo not drawn) [Example B256] | 65% | > 10000 nM
Cc1nnc2sc(C(=O)N3CCC[C@H]3C)c(N)c2c1C [Example B382] | 45% | > 10000 nM
Cc1nnc2sc(C(=O)N3CC(F)(c4ccc(S(=O)(=O)C(F)(F)F)cc4)C3)c(N)c2c1C [Example B378] | 46% | 4200 nM
